{
  "source": "patent US20070014722A1",
  "about": "“Method of treating human volume expansion mediated hypertension employing resibufogenin” (The Administrators of the Tulane Educational Fund, priority 2005, published 2007)",
  "key": {"[1]": {"experiment": "Biological activity as antiangiogenesis agent"}, "[2]": {"test_system": "DOCA-salt uninephrectomized rats (volume expansion mediated hypertension)", "experiment": "Blood pressure in DOCA-salt uninephrectomized rats (volume expansion mediated hypertension model)", "format": "in vivo, rat", "method": "(§1) In order to confirm the effectiveness of resibufogenin in treating volume expansion mediated hypertension, experiments were performed. Animal models of volume expansion mediated hypertension were created in the laboratory in accordance with guidance provided in “Down-regulation of Phosphorylation of Renal Proximal Brush Border Membrane Protein in DOCA-salt hypertensive rats”. H. Cai et al., J Am Soc Nephrol 5:S26, (1994). These models consisted of the administration of a potent mineralocorticoid desoxycorticosterone (DOCA) to rats whose drinking water had been replaced with 0.9% saline and which had one kidney removed (uninephrectomy) in order to induce volume expansion mediated hypertension. This group of animals is listed as Group I. Group II was the uninephrectomy control group (“time control”). Another group (Group III) utilized the Goldblatt 2 kidney, 1 clip model to induce vasoconstrictive (renin-angiotensin mediated) form of essential hypertension. All of the blood pressures were measured in mm Hg.\nIn each group, a baseline blood pressure was taken. This is shown in the first column. Subsequently, 10 days to 2 weeks prior to the introduction of resibufogenin, the blood pressure was measured. This appears in the second column. In the third column, the blood pressure was measured 10 days after administration of resibufogenin. The rats in Groups I and III weighed about 200 to 250 gm with resibufogenin being administered in the amount of about 1.53 micrograms per 100 grams of body weight. […] It is also noted that in the Group II control, that there was no meaningful pattern of reduction in blood pressure.\nA dosage of approximately 1.53 micrograms […] with the rats weighing in the range of about 200-250 g was employed daily in order to determine the effectiveness of resibufogenin in the treatment of volume expansion mediated hypertension. The dosage was administered intraperitonially and the rats monitored after about three to four days of treatment. […]\nThe dosage was administered intraperitonially and the rats monitored after about three to four days of treatment. […]"}, "[3]": {"test_system": "Goldblatt 2 kidney, 1 clip model (renin-angiotensin mediated hypertension)", "experiment": "Blood pressure in Goldblatt 2 kidney, 1 clip rats (vasoconstrictive hypertension model)", "format": "in vivo, rat", "conditions": "Group III, two rats; about 1.53 micrograms per 100 grams body weight", "method": "as §1\nIn each group, a baseline blood pressure was taken. This is shown in the first column. Subsequently, 10 days to 2 weeks prior to the introduction of resibufogenin, the blood pressure was measured. This appears in the second column. In the third column, the blood pressure was measured 10 days after administration of resibufogenin. […]"}},
  "note": "Values joined by “and” are separate entries in the source; they are usually repeats but may differ in a detail not shown here. Identical values can stand only once. “Also recorded” adds a separate entry of the source.",
  "data": [
    {"molecule": "C[C@]12CC[C@H](O)C[C@H]1CC[C@@H]1[C@@H]2CC[C@]2(C)[C@@H](c3ccc(=O)oc3)C[C@H]3O[C@]132", "note": "[Resibufogenin, resibufogenin]", "values": [
      {"measurement": "Biological activity as an antiangionesis agent", "setting": "[1]", "value": "not to be biologically active"},
      {"measurement": "Reduction in blood pressure (in words)", "setting": "[2]; Group I, four rats, 10 days after administration of resibufogenin", "value": "very substantial reduction in blood pressure; also recorded: meaningful reduction in blood pressure"},
      {"measurement": "Blood Pressure After 10 days of Resibufogenin", "setting": "[2]; Group I, individual rats #1-#4, about 1.53 micrograms per 100 grams body weight daily, intraperitoneal, in DMSO, after 10 days", "value": "85 mmHg and 90 mmHg and 130 mmHg and 100 mmHg"},
      {"measurement": "Reduction in blood pressure after treatment (in words)", "setting": "[2]; daily intraperitoneal dose, rats monitored after about three to four days of treatment", "value": "all of the rats experienced a substantial reduction in blood pressure"},
      {"measurement": "Blood pressure response to resibufogenin (in words)", "setting": "[3]", "value": "neither animal responded to resibufogenin"}
    ]}
  ]
}
